Data reported in PubChem BioAssay (NCI).
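Method: 48-hour compound exposure of cells in 96-well plates, five concentrations, linear interpolation of endpoints. GI50: concentration for 50% inhibition of growth. Definition used: TGI = concentration required for complete inhibition of growth.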

Columns and labels:
Assay in all cases: DTP human tumour cell line panel, 48 h
SF-295 CNS = system: SF-295 CNS
HCT-116 colon = system: HCT-116 colon
LOX IMVI melanoma = system: LOX IMVI melanoma
T-47D breast = system: T-47D breast
SNB-75 CNS = system: SNB-75 CNS
K-562 leukemia = system: K-562 leukemia
SF-268 CNS = system: SF-268 CNS
MOLT-4 leukemia = system: MOLT-4 leukemia
U251 CNS = system: U251 CNS
EKVX NSCLC = system: EKVX NSCLC

Structure (SMILES)	GI50 (SF-295 CNS)	TGI (SF-295 CNS)	GI50 (HCT-116 colon)	TGI (HCT-116 colon)	GI50 (LOX IMVI melanoma)	TGI (LOX IMVI melanoma)	GI50 (T-47D breast)	TGI (T-47D breast)	GI50 (SNB-75 CNS)	TGI (SNB-75 CNS)	GI50 (K-562 leukemia)	TGI (K-562 leukemia)	GI50 (SF-268 CNS)	TGI (SF-268 CNS)	GI50 (MOLT-4 leukemia)	TGI (MOLT-4 leukemia)	GI50 (U251 CNS)	TGI (U251 CNS)	TGI (EKVX NSCLC)	GI50 (EKVX NSCLC)
Cc1ccc(-c2cc(C(=O)Nc3ccc(S(=O)(=O)N4CCCCC4)cc3)[nH]n2)c(O)c1	> 100000 nM	> 100 µM	> 100000 nM	> 100 µM	> 100000 nM	> 100 µM	> 100000 nM	> 100 µM	> 100000 nM	> 100 µM	74100 nM	> 100 µM	> 100 µM	> 100 µM	55100 nM	> 100 µM	> 100000 nM	> 100 µM	–	–
Cn1cnc([N+](=O)[O-])c1Sc1n[nH]c(-c2ccc(Cl)cc2)n1	–	58.8 µM	–	58.1 µM	–	30.1 µM	–	–	–	50.7 µM	–	51.3 µM	–	50.7 µM	–	38.1 µM	–	48.9 µM	79.9 µM	–
COc1cc(CSc2nc3ccc(Cl)cc3c(=O)n2Cc2ccccc2)cc(OC)c1OC	–	–	3720 nM	> 100 µM	5970 nM	> 100 µM	3920 nM	> 100 µM	1150 nM	4.09 µM	1190 nM	> 100 µM	7.33 µM	> 100 µM	4410 nM	> 100 µM	4360 nM	35.7 µM	–	–
O/N=C1/CCCC/C1=C\c1ccc(Cl)c(Cl)c1	–	> 100 µM	–	35.8 µM	–	42.9 µM	–	–	–	60.1 µM	–	> 100 µM	–	> 100 µM	–	36.4 µM	–	38.9 µM	> 100 µM	–
NC1=NN(c2ccccc2)C(=O)C1C(=O)C(=O)Nc1ccccc1 (stereo not given)	–	> 100 µM	–	> 100 µM	–	> 100 µM	–	–	–	–	–	> 100 µM	–	> 100 µM	–	> 100 µM	–	> 100 µM	> 100 µM	–
Nc1nc(-c2cccnc2)cc(-c2cc(-c3cccnc3)nc(N)n2)n1	–	> 100 µM	–	> 100 µM	–	> 100 µM	–	> 100 µM	–	–	–	> 100 µM	–	> 100 µM	–	> 100 µM	–	> 100 µM	> 100 µM	–
COc1cccc2c1C(=O)c1c(O)c3c(c(O)c1C2=O)C[C@](O)(C(=O)CO)C[C@H]3O[C@@H]1C[C@@H](NC(=O)CCCN(C)C2(c3ccc(F)cc3)CC3CCC2C3)[C@H](O)[C@@H](C)O1 (stereo not given in full)	805 nM	1.6 µM	742 nM	1.47 µM	734 nM	1.45 µM	–	–	1090 nM	9.89 µM	1020 nM	2.58 µM	–	–	382 nM	1.9 µM	793 nM	1.52 µM	2.01 µM	917 nM
COc1ccc(/C=C/c2onc3c(=O)n(C)nc(-c4ccccc4)c23)cc1	–	–	–	> 100 µM	–	> 100 µM	–	–	–	–	–	> 100 µM	–	> 100 µM	–	> 100 µM	–	> 100 µM	> 100 µM	–
CCOC(=O)C1CC(=O)C=C2CCCCC21 (stereo not given)	–	> 100 µM	–	> 100 µM	–	> 100 µM	–	–	–	> 100 µM	–	> 100 µM	–	> 100 µM	–	> 100 µM	–	> 100 µM	> 100 µM	–
CCCCCCOC(=O)CC1=C(C)/C(=C/c2[nH]c(-c3ccc[nH]3)cc2OC)N=C1C	120 nM	0.466 µM	31.1 nM	1.05 µM	21.8 nM	0.0565 µM	36.7 nM	0.545 µM	37.2 nM	0.3 µM	–	–	0.0818 µM	2 µM	43.6 nM	1.46 µM	67.5 nM	1.13 µM	1.64 µM	57.6 nM
COc1ccc(C2c3ccc4ccccc4c3Oc3ncn(CCCn4ccnc4)c(=N)c32)cc1OC (stereo not given)	4350 nM	19.9 µM	3020 nM	11 µM	1880 nM	3.7 µM	2390 nM	6.25 µM	2120 nM	8.13 µM	2070 nM	4.54 µM	3.52 µM	13.8 µM	2590 nM	6.25 µM	2360 nM	7.69 µM	–	–
Cc1cccc2c(=O)c3c(sc12)c(NCCCNCCO)nc1ccccc13	1720 nM	3.18 µM	1510 nM	3.03 µM	1380 nM	2.76 µM	1570 nM	3.5 µM	1130 nM	2.35 µM	–	–	1.4 µM	2.97 µM	1130 nM	2.62 µM	1500 nM	2.96 µM	3 µM	1570 nM
C[C@@H]1CC[C@@]2(C)OC(c3ccccc3)[C@H](CO)N2C1=O (stereo not given in full)	–	> 100 µM	–	> 100 µM	–	> 100 µM	–	–	–	> 100 µM	–	> 100 µM	–	> 100 µM	–	–	–	> 100 µM	> 100 µM	–
OCC1OC(N2C=C(c3nc4ccccc4s3)C3C=CC=CC32)C(O)C(O)C1O (stereo not given)	13400 nM	37.9 µM	11500 nM	42.4 µM	10900 nM	26 µM	–	–	18100 nM	> 50 µM	19000 nM	> 50 µM	15 µM	> 50 µM	36500 nM	> 50 µM	16600 nM	> 50 µM	> 50 µM	18100 nM
Cc1cc(-c2nc3sc(C)cn3c2/C=N/N=C(N)N)c(C)s1	1780 nM	3.85 µM	1790 nM	3.37 µM	13300 nM	29.8 µM	3560 nM	13.8 µM	–	–	> 100000 nM	> 100 µM	13.6 µM	28.9 µM	> 100000 nM	> 100 µM	11200 nM	25.5 µM	30.6 µM	14800 nM
O=CN/C=C/c1ccccc1	–	> 100 µM	–	> 100 µM	–	> 100 µM	–	–	–	> 100 µM	–	> 31.6 µM	–	> 100 µM	–	> 100 µM	–	> 100 µM	> 100 µM	–
C=C(C)CC(C(=O)O)c1ccc(C)cc1 (stereo not given)	–	> 100 µM	–	> 100 µM	–	> 100 µM	–	–	–	> 100 µM	–	> 100 µM	–	> 100 µM	–	–	–	> 100 µM	> 100 µM	–
O=CCCn1[nH]c(=O)ccc1=O	–	> 100 µM	–	> 100 µM	–	> 100 µM	–	–	–	> 100 µM	–	> 100 µM	–	> 100 µM	–	> 100 µM	–	> 100 µM	> 100 µM	–
